Results taken from patent publication US20230019491A1, “PYRIMIDINE TBK/IKKe INHIBITOR COMPOUNDS AND USES THEREOF” (Merck Patent GmbH, priority 2017, published 2023).
Where a name gives a salt, the structure may show the parent alone.

Key:
[1] = molecular target: T1, TBK1 (Homo sapiens, UniProt Q9UHD2); experiment: TBK biochemical assay; details: 10 point 1:4 dose response, 30 uM top concentration, 90 min at 25° C., LabChip EZ Reader II; read-out: TBK1_IC50
T1 sequence (Q9UHD2 1-729): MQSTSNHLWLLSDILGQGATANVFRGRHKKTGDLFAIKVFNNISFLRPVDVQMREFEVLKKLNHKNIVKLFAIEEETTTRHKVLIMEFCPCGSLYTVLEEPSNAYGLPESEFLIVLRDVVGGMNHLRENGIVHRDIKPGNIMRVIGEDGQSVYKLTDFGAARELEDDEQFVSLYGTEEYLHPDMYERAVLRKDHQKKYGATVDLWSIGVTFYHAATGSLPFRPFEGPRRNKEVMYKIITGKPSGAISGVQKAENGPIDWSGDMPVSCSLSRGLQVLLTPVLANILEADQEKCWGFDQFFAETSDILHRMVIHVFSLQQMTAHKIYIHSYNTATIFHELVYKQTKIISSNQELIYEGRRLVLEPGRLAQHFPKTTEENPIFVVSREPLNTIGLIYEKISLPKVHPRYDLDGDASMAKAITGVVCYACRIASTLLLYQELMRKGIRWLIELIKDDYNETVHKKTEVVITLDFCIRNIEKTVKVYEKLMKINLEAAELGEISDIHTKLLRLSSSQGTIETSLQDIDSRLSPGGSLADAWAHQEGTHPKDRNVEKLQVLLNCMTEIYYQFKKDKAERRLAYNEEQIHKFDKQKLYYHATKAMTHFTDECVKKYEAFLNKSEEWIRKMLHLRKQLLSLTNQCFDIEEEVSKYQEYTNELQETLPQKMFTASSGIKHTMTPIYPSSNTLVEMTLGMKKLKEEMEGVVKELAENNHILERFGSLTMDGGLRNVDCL
In short: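 Read-out was a Caliper LabChip mobility-shift assay, run after a 90-min, 25 °C reaction of TBK1 with substrate and compounds, quenched with stop buffer. Control wells received staurosporine at 10 uM final.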

[2] = molecular target: T2, IKKε (Homo sapiens, UniProt Q14164); experiment: IKKε biochemical assay; details: 10 point 1:4 dose response, 30 uM top concentration, 90 min at 25° C., LabChip EZ Reader II; read-out: IKKε_IC50
T2 sequence (Q14164 1-716): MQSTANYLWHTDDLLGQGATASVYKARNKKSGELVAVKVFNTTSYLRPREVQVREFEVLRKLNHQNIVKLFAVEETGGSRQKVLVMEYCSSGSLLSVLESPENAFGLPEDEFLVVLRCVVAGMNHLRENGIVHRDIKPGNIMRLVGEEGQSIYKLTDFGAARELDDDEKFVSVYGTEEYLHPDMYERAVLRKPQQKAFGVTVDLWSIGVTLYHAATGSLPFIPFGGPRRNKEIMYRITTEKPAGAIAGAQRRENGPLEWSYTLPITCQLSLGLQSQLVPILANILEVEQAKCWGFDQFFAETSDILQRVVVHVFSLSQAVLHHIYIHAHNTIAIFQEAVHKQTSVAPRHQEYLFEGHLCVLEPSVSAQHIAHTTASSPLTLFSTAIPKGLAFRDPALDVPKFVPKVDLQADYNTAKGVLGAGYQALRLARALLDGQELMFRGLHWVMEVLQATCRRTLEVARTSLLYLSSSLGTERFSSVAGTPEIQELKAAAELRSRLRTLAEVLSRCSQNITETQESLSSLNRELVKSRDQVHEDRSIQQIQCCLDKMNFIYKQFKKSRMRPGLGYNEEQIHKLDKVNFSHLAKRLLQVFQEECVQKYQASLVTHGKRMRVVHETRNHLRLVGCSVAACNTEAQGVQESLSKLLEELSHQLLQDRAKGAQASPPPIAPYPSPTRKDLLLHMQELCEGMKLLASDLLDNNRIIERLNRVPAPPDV
In short: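 Mobility-shift LabChip read-out followed a 90 min, 25° C. reaction of IKKε with substrate and test compound, with DMSO held at 1% final. Reactions were ended with stop buffer. Wells with 10 uM final staurosporine defined complete inhibition, and DMSO-only wells the uninhibited level.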

Row | SMILES | IC50 [1] | IC50 [2]
1 | N#Cc1cc(-c2ccnc(Nc3ccc(N4CCN(C5COC5)CC4)cc3)n2)ccc1OC1CCOCC1 [Example 135, 2-(oxan-4-yloxy)-5-[2-([4-[4-(oxetan-3-yl)piperazin-1-yl]phenyl]amino)pyrimidin-4-yl]benzonitrile] | < 100 nM | < 100 nM
2 | N#Cc1cc(-c2ccnc(Nc3ccc(N4CCN(C5COC5)CC4)cc3)n2)ccc1OC1CCNCC1(F)F (stereo not drawn) [Example 136, 2-[(3,3-difluoropiperidin-4-yl)oxy]-5-[2-([4-[4-(oxetan-3-yl)piperazin-1-yl]phenyl]amino)pyrimidin-4-yl]benzonitrile] | < 100 nM | < 100 nM
3 | N#Cc1cc(-c2ccnc(Nc3ccc(N4CCN(C5COC5)CC4)cc3)n2)ccc1OC1CCN(C(=O)CO)CC1(F)F (stereo not drawn) [Example 137, 2-[[3,3-difluoro-1-(2-hydroxyacetyl)piperidin-4-yl]oxy]-5-[2-([4-[4-(oxetan-3-yl)piperazin-1-yl]phenyl]amino)pyrimidin-4-yl]benzonitrile] | < 100 nM | < 100 nM
4 | C[C@H](O)C(=O)N1CCC(Oc2ccc(-c3ccnc(Nc4ccc(N5CCN(C6COC6)CC5)cc4)n3)cc2C#N)C(F)(F)C1 (stereo partly drawn) [Example 138, 2-([3,3-difluoro-1-[(2S)-2-hydroxypropanoyl]piperidin-4-yl]oxy)-5-[2-([4-[4-(oxetan-3-yl)piperazin-1-yl]phenyl]amino)pyrimidin-4-yl]benzonitrile] | < 100 nM | < 100 nM
5 | C[C@H](O)C(=O)N1CC[C@H](Oc2ccc(-c3ccnc(Nc4ccc(N5CCN(C6COC6)CC5)cc4)n3)cc2C#N)C(F)(F)C1 [Example 139, 2-[[(4S)-3,3-difluoro-1-[(2S)-2-hydroxypropanoyl]piperidin-4-yl]oxy]-5-[2-([4-[4-(oxetan-3-yl)piperazin-1-yl]phenyl]amino)pyrimidin-4-yl]benzonitrile] | < 100 nM | < 100 nM
6 | C[C@H](O)C(=O)N1CC[C@@H](Oc2ccc(-c3ccnc(Nc4ccc(N5CCN(C6COC6)CC5)cc4)n3)cc2C#N)C(F)(F)C1 [Example 140, 2-[[(4R)-3,3-difluoro-1-[(2S)-2-hydroxypropanoyl]piperidin-4-yl]oxy]-5-[2-([4-[4-(oxetan-3-yl)piperazin-1-yl]phenyl]amino)pyrimidin-4-yl]benzonitrile] | < 100 nM | < 100 nM
7 | C[C@@H](O)C(=O)N1CCC(Oc2ccc(-c3ccnc(Nc4ccc(N5CCN(C6COC6)CC5)cc4)n3)cc2C#N)C(F)(F)C1 (stereo partly drawn) [Example 141, 2-([3,3-difluoro-1-[(2R)-2-hydroxypropanoyl]piperidin-4-yl]oxy)-5-[2-([4-[4-(oxetan-3-yl)piperazin-1-yl]phenyl]amino)pyrimidin-4-yl]benzonitrile] | < 100 nM | < 100 nM
8 | C[C@@H](O)C(=O)N1CC[C@H](Oc2ccc(-c3ccnc(Nc4ccc(N5CCN(C6COC6)CC5)cc4)n3)cc2C#N)C(F)(F)C1 [Example 142, 2-[[(4S)-3,3-difluoro-1-[(2R)-2-hydroxypropanoyl]piperidin-4-yl]oxy]-5-[2-([4-[4-(oxetan-3-yl)piperazin-1-yl]phenyl]amino)pyrimidin-4-yl]benzonitrile] | < 100 nM | < 100 nM
9 | COc1nc(Nc2nccc(-c3ccc(OC4CCNCC4(F)F)c(C#N)c3)n2)ccc1C1CCN(C)CC1 (stereo not drawn) [Example 144, 2-(3,3-Difluoro-piperidin-4-yloxy)-5-[2-(2-methoxy-1′-methyl-1′,2′,3′,4′,5′,6′-hexahydro-[3,4′]bipyridinyl-6-ylamino)-pyrimidin-4-yl]-benzonitrile] | < 100 nM | < 100 nM
10 | C[C@@H](O)C(=O)N1CCC(Oc2ccc(-c3ccnc(Nc4ccc(C5CCN(C)CC5)cc4)n3)cc2C#N)C(F)(F)C1 (stereo partly drawn) [Example 145, 2-([3,3-difluoro-1-[(2R)-2-hydroxypropanoyl]piperidin-4-yl]oxy)-5-(2-[[4-(1-methylpiperidin-4-yl)phenyl]amino]pyrimidin-4-yl)benzonitrile] | < 100 nM | < 100 nM
11 | COc1nc(Nc2nccc(-c3ccc(OC4CCN(C(=O)C(C)O)CC4(F)F)c(C#N)c3)n2)ccc1C1CCN(C)CC1 (stereo not drawn) [Example 146, 2-[[3,3-difluoro-1-(2-hydroxypropanoyl)piperidin-4-yl]oxy]-5-(2-[[6-methoxy-5-(1-methylpiperidin-4-yl)pyridin-2-yl]amino]pyrimidin-4-yl)benzonitrile] | < 100 nM | < 100 nM
12 | COc1nc(Nc2nccc(-c3ccc(OC4CCN(C(=O)[C@@H](C)O)CC4(F)F)c(C#N)c3)n2)ccc1C1CCN(C)CC1 (stereo partly drawn) [Example 147, 2-([3,3-difluoro-1-[(2R)-2-hydroxypropanoyl]piperidin-4-yl]oxy)-5-(2-[[6-methoxy-5-(1-methylpiperidin-4-yl)pyridin-2-yl]amino]pyrimidin-4-yl)benzonitrile] | < 100 nM | < 100 nM
13 | CN1CCC(c2ccc(Nc3nccc(-c4ccc(OC5CCN(C(=O)CO)CC5(F)F)c(C#N)c4)n3)cc2)CC1 (stereo not drawn) [Example 148, 2-[[3,3-difluoro-1-(2-hydroxyacetyl)piperidin-4-yl]oxy]-5-(2-[[4-(1-methylpiperidin-4-yl)phenyl]amino]pyrimidin-4-yl)benzonitrile] | < 100 nM | < 100 nM
14 | CC(O)C(=O)N1CCC(Oc2ccc(-c3ccnc(Nc4ccc(C5CCN(C)CC5)cc4)n3)cc2C#N)C(F)(F)C1 (stereo not drawn) [Example 149, 2-[[3,3-difluoro-1-(2-hydroxypropanoyl)piperidin-4-yl]oxy]-5-(2-[[4-(1-methylpiperidin-4-yl)phenyl]amino]pyrimidin-4-yl)benzonitrile] | < 100 nM | < 100 nM
15 | N#Cc1cc(-c2ccnc(Nc3ccc(C4CCN(C5COC5)CC4)cc3)n2)ccc1OC1CCNCC1(F)F (stereo not drawn) [Example 150, 2-(3,3-Difluoro-piperidin-4-yloxy)-5-{2-[4-(1-oxetan-3-yl-piperidin-4-yl)-phenylamino]-pyrimidin-4-yl}-benzonitrile hydrochloride] | < 100 nM | < 100 nM
16 | N#Cc1cc(-c2ccnc(Nc3ccc(C4CCN(C5COC5)CC4)cc3)n2)ccc1OC1CCOCC1 [Example 151, 5-{2-[4-(1-Oxetan-3-yl-piperidin-4-yl)-phenylamino]-pyrimidin-4-yl}-2-(tetrahydro-pyran-4-yloxy)-benzonitrile] | < 100 nM | < 100 nM
17 | COc1nc(Nc2nccc(-c3ccc(OC4CCN(C(=O)[C@H](C)O)CC4(F)F)c(C#N)c3)n2)ccc1C1CCN(C2COC2)CC1 (stereo partly drawn) [Example 152, 2-[3,3-Difluoro-1-((S)-2-hydroxy-propionyl)-piperidin-4-yloxy]-5-[2-(2-methoxy-1′-oxetan-3-yl-1′,2′,3′,4′,5′,6′-hexahydro-[3,4′]bipyridinyl-6-ylamino)-pyrimidin-4-yl]-benzonitrile] | < 100 nM | < 100 nM
18 | COc1nc(Nc2nccc(-c3ccc(OC4CCN(C(=O)[C@@H](O)CO)CC4(F)F)c(C#N)c3)n2)ccc1C1CCN(C2COC2)CC1 (stereo partly drawn) [Example 153, 2-[1-((S)-2,3-Dihydroxy-propionyl)-3,3-difluoro-piperidin-4-yloxy]-5-[2-(2-methoxy-1′-oxetan-3-yl-1′,2′,3′,4′,5′,6′-hexahydro-[3,4′]bipyridinyl-6-ylamino)-pyrimidin-4-yl]-benzonitrile] | < 100 nM | < 100 nM
